According to patent publication US10450316B2, “Certain protein kinase inhibitor” (Chongqing Fochon Pharmaceutical Co., Ltd., priority 2015, dated 2019):

system: BE(2)-C cell; assay: Cell proliferation assay (MTS) in BE(2)-C cells; format: cell-based; details: Homo sapiens, inhibition of BE(2)-C cell proliferation, 48 h
Protocol: MTS testing kit was purchased from Promega. The DMEM, Fetal bovine serum and Penicillin-Streptomycin were purchased from Gibco. Dimethyl sulfoxide (DMSO) was purchased from Sigma.
To investigate whether a compound is able to inhibit the activity of CDK4/6 in cells, mechanism-based assays using BE(2)-C cell (ATCC® number:CRL-2268) were developed. In the assay, inhibition of CDK4/6 was detected by the inhibition of BE(2)-C cell cells proliferation. BE(2)-C cell cells were cultured in culture flasks to 40-80% confluence in DMEM plus 10% fetal bovine serum. Cells were collected and plated onto 96-well plates at cell density of 3000 cells/well. Plates were incubated overnight at 37° C., with 5% CO2 to adhere. Compounds were added to the plates, the final compound concentrations were 10000, 3333, 1111, […], 123.5, 41.2, 13.7, 4.6 and 1.5 nM. Place plates at 37° C., with 5% CO2 for 48 h. After removing the medium, 20 μl MTS/100 μl medium mixture solution were added to each well and incubate the plates for exactly 2 hours. The reaction was terminated by adding 25 μl 10% SDS per well. Measure absorbance at 490 nm and 650 nm (reference wavelength). IC50 was calculated using GraphPad Prism 5.0.
Select compounds prepared as described above were assayed according to the biological procedures described herein. “++++” stands for IC50 value below about 10 nM. “+++” stands for IC50 value between greater than about 10 nM to about 100 nM. “++” stands for IC50 value between greater than about 100 nM to about […]. “+” stands for IC50 value greater than 1 μM.

Structure (SMILES)	IC50
C[C@@H]1CCc2nc3c(F)cc(-c4nc(Nc5ccc(CN6CC7(CCN(C)CC7)C6)cn5)ncc4F)cc3n21 [Example 90, (R)-5-fluoro-4-(5-fluoro-1-methyl-2,3-dihydro-1H-benzo[d]pyrrolo[1,2-a]imidazol-7-yl)-N-(5-((7-methyl-2,7-diazaspiro[3.5]nonan-2-yl)methyl)pyridin-2-yl)pyrimidin-2-amine]	0.01 to 0.1 µM
CN1CC2CN(Cc3ccc(Nc4ncc(F)c(-c5cc(F)c6nc7n(c6c5)C(C)(C)CC7)n4)nc3)CC2C1 (stereo not shown) [Example 124, 5-fluoro-4-(5-fluoro-1,1-dimethyl-2,3-dihydro-1H-benzo[d]pyrrolo[1,2-a]imidazol-7-yl)-N-(5-((5-methylhexahydropyrrolo[3,4-c]pyrrol-2(1H)-yl)methyl)pyridin-2-yl)pyrimidin-2-amine]	0.01 to 0.1 µM
CC1(C)CCc2nc3c(F)cc(-c4nc(Nc5ccc(CN6CC7(CNC7)C6)cn5)ncc4F)cc3n21 [Example 117, N-(5-((2,6-diazaspiro[3.3]heptan-2-yl)methyl)pyridin-2-yl)-5-fluoro-4-(5-fluoro-1,1-dimethyl-2,3-dihydro-1H-benzo[d]pyrrolo[1,2-a]imidazol-7-yl)pyrimidin-2-amine]	> 0.1 µM
CCN1C2CC1CN(Cc1ccc(Nc3ncc(F)c(-c4cc(F)c5nc6n(c5c4)C4(CC6)CC4)n3)nc1)C2 [Example 134, N-(5-((6-ethyl-3,6-diazabicyclo[3.1.1]heptan-3-yl)methyl)pyridin-2-yl)-5-fluoro-4-(5-fluoro-2,3-dihydrospiro[benzo[d]pyrrolo[1,2-a]imidazole-1,1′-cyclopropan]-7-yl)pyrimidin-2-amine]	> 0.1 µM
CCN1CC2CN(Cc3ccc(Nc4ncc(F)c(-c5cc(F)c6nc7n(c6c5)C5(CC7)CC5)n4)nc3)CC21 (stereo not shown) [Example 143, N-(5-((6-ethyl-3,6-diazabicyclo[3.2.0]heptan-3-yl)methyl)pyridin-2-yl)-5-fluoro-4-(5-fluoro-2,3-dihydrospiro[benzo[d]pyrrolo[1,2-a]imidazole-1,1′-cyclopropan]-7-yl)pyrimidin-2-amine]	> 1 µM
CCN1CCN(Cc2ccc(Nc3ncc(F)c(-c4cc(F)c5nc6n(c5c4)[C@@H](C(F)F)CC6)n3)nc2)CC1 [Example 154, (R)-4-(1-(difluoromethyl)-5-fluoro-2,3-dihydro-1H-benzo[d]pyrrolo[1,2-a]imidazol-7-yl)-N-(5-((4-ethylpiperazin-1-yl)methyl)pyridin-2-yl)-5-fluoropyrimidin-2-amine]	> 1 µM
Fc1cnc(Nc2ccc(CN3CCNCC3)cn2)nc1-c1cc(F)c2nc3n(c2c1)C1(CC3)CC1 [Example 13, 5-fluoro-4-(5-fluoro-2,3-dihydrospiro[benzo[d]pyrrolo[1,2-a]imidazole-1,1′-cyclopropan]-7-yl)-N-(5-(piperazin-1-ylmethyl)pyridin-2-yl)pyrimidin-2-amine]	> 0.1 µM
FC[C@@H]1CCc2nc3c(F)cc(-c4nc(Nc5ccc(CN6CCC7(CCNCC7)CC6)cn5)ncc4F)cc3n21 [Example 29, (S)-N-(5-((3,9-diazaspiro[5.5]undecan-3-yl)methyl)pyridin-2-yl)-5-fluoro-4-(5-fluoro-1-(fluoromethyl)-2,3-dihydro-1H-benzo[d]pyrrolo[1,2-a]imidazol-7-yl)pyrimidin-2-amine]	> 0.1 µM
C[C@@H]1CCc2nc3c(F)cc(-c4nc(Nc5ccc(CN6CC7(CN(C)C7)C6)cn5)ncc4F)cc3n21 [Example 96, (R)-5-fluoro-4-(5-fluoro-1-methyl-2,3-dihydro-1H-benzo[d]pyrrolo[1,2-a]imidazol-7-yl)-N-(5-((6-methyl-2,6-diazaspiro[3.3]heptan-2-yl)methyl)pyridin-2-yl)pyrimidin-2-amine]	> 0.1 µM
O[C@@H]1C[C@H]2CN(Cc3ccc(Nc4ncc(F)c(-c5cc(F)c6nc7n(c6c5)C5(CC7)CC5)n4)nc3)CCN2C1 [Example 146, (7R,8aS)-2-((6-((5-fluoro-4-(5-fluoro-2,3-dihydro-spiro[benzo[d]pyrrolo[1,2-a]imidazole-1,1′-cyclo-propan]-7-yl)pyrimidin-2-yl)amino)pyridin-3-yl)methyl)octahydropyrrolo[1,2-a]pyrazin-7-ol]	> 1 µM
C[C@@H]1CCc2nc3c(F)cc(-c4nc(Nc5ccc(CN6C7CCC6CN(C)C7)cn5)ncc4F)cc3n21 [Example 102, 5-fluoro-4-((R)-5-fluoro-1-methyl-2,3-dihydro-1H-benzo[d]pyrrolo[1,2-a]imidazol-7-yl)-N-(5-((3-methyl-3,8-diazabicyclo[3.2.1]octan-8-yl)methy1)pyridin-2-yl)pyrimidin-2-amine]	0.01 to 0.1 µM
CCN1CC2CN(Cc3ccc(Nc4ncc(F)c(-c5cc(F)c6nc7n(c6c5)[C@H](CF)CC7)n4)nc3)CC2C1 (stereo partly drawn) [Example 28, N-(5-((5-ethylhexahydropyrrolo[3,4-c]pyrrol-2(1H)-yl)methyl)pyridin-2-yl)-5-fluoro-4-((S)-5-fluoro-1-(fluoromethyl)-2,3-dihydro-1H-benzo[d]pyrrolo[1,2-a]imidazol-7-yl)pyrimidin-2-amine]	0.01 to 0.1 µM
Fc1cnc(Nc2ccc(CN3CCC4(CC3)CNC4)cn2)nc1-c1cc(F)c2nc3n(c2c1)[C@H](C(F)(F)F)CC3 [Example 64, (S)-N-(5-((2,7-diazaspiro[3.5]nonan-7-yl)methyl)pyridin-2-yl)-5-fluoro-4-(5-fluoro-1-(trifluoro-methyl)-2,3-dihydro-1H-benzo[d]pyrrolo[1,2-a]imidazol-7-yl)pyrimidin-2-amine]	> 0.1 µM
CN1CC2(CCN(Cc3ccc(Nc4ncc(F)c(-c5cc(F)c6nc7n(c6c5)C(C)(C)CC7)n4)nc3)CC2)C1 [Example 115, 5-fluoro-4-(5-fluoro-1,1-dimethyl-2,3-dihydro-1H-benzo[d]pyrrolo[1,2-a]imidazol-7-yl)-N-(5-((2-methyl-2,7-diazaspiro[3.5]nonan-7-yl)methyl)pyridin-2-yl)pyrimidin-2-amine]	0.01 to 0.1 µM
CCN1CC2CN(Cc3ccc(Nc4ncc(F)c(-c5cc(F)c6nc7n(c6c5)C(C)(C)CC7)n4)nc3)CC2C1 (stereo not shown) [Example 125, N-(5-((5-ethylhexahydropyrrolo[3,4-c]pyrrol-2(1H)-yl)methyl)pyridin-2-yl)-5-fluoro-4-(5-fluoro-1,1-dimethyl-2,3-dihydro-1H-benzo[d]pyrrolo[1,2-a]imidazol-7-yl)pyrimidin-2-amine]	0.01 to 0.1 µM
C[C@@H]1CCc2nc3c(F)cc(-c4nc(Nc5ccc(CN6CC7CN(C)CC7C6)cn5)ncc4F)cc3n21 (stereo partly drawn) [Example 99, 5-fluoro-4-((R)-5-fluoro-1-methyl-2,3-dihydro-1H-benzo[d]pyrrolo[1,2-a]imidazol-7-yl)-N-(5-((5-methylhexahydropyrrolo[3,4-c]pyrrol-2(1H)-yl)methyl)pyridin-2-yl)pyrimidin-2-amine]	0.01 to 0.1 µM
CCN1C[C@@]2(C)CN(Cc3ccc(Nc4ncc(F)c(-c5cc(F)c6nc7n(c6c5)C5(CC7)CC5)n4)nc3)C[C@@]2(C)C1 [Example 140, N-(5-(((3aR,6aS)-5-ethyl-3a,6a-dimethyl-hexahydropyrrolo[3,4-c]pyrrol-2(1H)-yl)methyl)pyridin-2-yl)-5-fluoro-4-(5-fluoro-2,3-dihydro-spiro[benzo[d]pyrrolo[1,2-a]imidazole-1,1′-cyclopropan]-7-yl)pyrimidin-2-amine]	> 0.1 µM
FC[C@@H]1CCc2nc3c(F)cc(-c4nc(Nc5ccc(CN6C7CCC6CNC7)cn5)ncc4F)cc3n21 [Example 32, N-(5-((3,8-diazabicyclo[3.2.1]octan-8-yl)methyl)pyridin-2-yl)-5-fluoro-4-((S)-5-fluoro-1-(fluoro-methyl)-2,3-dihydro-1H-benzo[d]pyrrolo[1,2-a]imidazol-7-yl)pyrimidin-2-amine]	> 0.1 µM
CCN1CCC2(CC1)CN(Cc1ccc(Nc3ncc(F)c(-c4cc(F)c5nc6n(c5c4)[C@H](C(F)F)CC6)n3)nc1)C2 [Example 44, (S)-4-(1-(difluoromethyl)-5-fluoro-2,3-dihydro-1H-benzo[d]pyrrolo[1,2-a]imidazol-7-yl)-N-(5-((7-ethyl-2,7-diazaspiro[3.5]nonan-2-yl)methyl)pyridin-2-yl)-5-fluoropyrimidin-2-amine]	0.01 to 0.1 µM
CN1CC2CN(Cc3ccc(Nc4ncc(F)c(-c5cc(F)c6nc7n(c6c5)[C@H](C(F)(F)F)CC7)n4)nc3)CC2C1 (stereo partly drawn) [Example 74, 5-fluoro-4-((S)-5-fluoro-1-(trifluoromethyl)-2,3-dihydro-1H-benzo[d]pyrrolo[1,2-a]imidazol-7-yl)-N-(5-((5-methylhexahydropyrrolo[3,4-c]pyrrol-2(1H)-yl)methyl)pyridin-2-yl)pyrimidin-2-amine]	0.01 to 0.1 µM
Fc1cnc(Nc2ccc(CN3C4CCC3CNC4)cn2)nc1-c1cc(F)c2nc3n(c2c1)[C@H](C(F)F)CC3 [Example 54, N-(5-((3,8-diazabicyclo[3.2.1]octan-8-yl)methyl)pyridin-2-yl)-4-((S)-1-(difluoromethyl)-5-fluoro-2,3-dihydro-1H-benzo[d]pyrrolo[1,2-a]imidazol-7-yl)-5-fluoropyrimidin-2-amine]	> 0.1 µM
Fc1cnc(Nc2ccc(N3CCNCC3)cn2)nc1-c1cc(F)c2nc3n(c2c1)[C@H](C(F)F)CC3 [Example 38, (S)-4-(1-(difluoromethyl)-5-fluoro-2,3-dihydro-1H-benzo[d]pyrrolo[1,2-a]imidazol-7-yl)-5-fluoro-N-(5-(piperazin-1-yl)pyridin-2-yl)pyrimidin-2-amine]	> 0.1 µM
